The values below come from patent publication US20110237592A1, “SUBSTITUTED AMIDO PHENOXYBENZAMIDES” (BAYER SCHERING PHARMA AKTIENGESELLSCHAFT, priority 2008, published 2011).

Each structure is given as a SMILES string.

One experiment has as its system colon cancer. To be noted: oral treatment, mouse models, ref. [18]; cited from earlier work.
Another experiment has as its system MEK1/2. The following applies: background statement, ref. [17]; cited from earlier work.
A further experiment deals with T1, MEK1 (Homo sapiens, UniProt Q02750).
T1 construct: purchased Millipore 14-420
The experiment can be described thus: MEK1 activation kinase assay (Cot1, HTRF). In kind it is biochemical. To be noted: inhibition of Cot1-mediated activation of GST-MEK1, HTRF. From the text: The kinase Cot1 activates MEK1 by phosphorylating its activation loop. The inhibitory activity of compounds of the present invention on this activation of MEK1 was quantified employing the HTRF assay described in the following paragraphs.
N-terminally His6-tagged recombinant kinase domain of the human Cot1 (amino acids 30-397, purchased from Millipore, cat. no 14-703) expressed in insect cells (SF21) and purified by Ni-NTA affinity chromatography was used as kinase. As substrate for the kinase reaction the unactive C-terminally His6-tagged GST-MEK1 fusion protein (Millipore cat. no 14-420) was used.
For the assay 50 nl of a 100 fold concentrated solution of the test compound in DMSO was pipetted into a black low volume 384 well microtiter plate (Greiner Bio-One, Frickenhausen, Germany), 3 μl of a solution of 24 nM GST-MEK1 and 166.7 μM adenosine-tri-phosphate (ATP) in assay buffer [50 mM Tris/HCl pH 7.5, 10 mM MgCl2, 2 mM dithiothreitol, 0.01% (v/v) Igepal CA 630 (Sigma), 5 mM β-phospho-glycerol] were added and the mixture was incubated for 10 min at 22° C. to allow pre-binding of the test compounds to the GST-MEK1 before the start of the kinase reaction. Then the kinase reaction was started by the addition of 2 μl of a solution of Cot1 in assay buffer and the resulting mixture was incubated for a reaction time of 20 min at 22° C. […]
The resulting mixture was incubated 2 h at 22° C. to allow the binding of the phosphorylated GST-MEK1 to the anti-GST-XL665 and the Eu-cryptate labelled anti-phospho-MEK 1/2 antibody. Subsequently the amount of Ser217/Ser221-phosphorylated substrate was evaluated by measurement of the resonance energy transfer from the Eu-Cryptate-labelled anti-phospho-MEK antibody to the anti-GST-XL665. Therefore, the fluorescence emissions at 620 nm and 665 nm after excitation at 350 nm was measured in a HTRF reader, e.g. a Rubystar (BMG Labtechnologies, Offenburg, Germany) or a Viewlux (Perkin-Elmer). […]
Background: Time-resolved FRET reads energy transfer from a long-lived donor to a nearby acceptor.

A further experiment relates to A375 cells. In words: A375 proliferation crystal violet (CV) assay. In kind it is cell-based. To be noted: Homo sapiens, A-375, 96 h, crystal violet staining, 4 days. The protocol:
Alternatively, the cell proliferation was measured by crystal violet (CV) staining: Assay 7
Cultivated human A375 cells were plated out in a density of 1500 cells/measurement point in 200 μl of growth medium (DMEM/HAMS F12 (Biochrom; FG4815) with 10% FBS and 2 mM Glutamine) in a 96-well multititer plate. After 24 hours, the cells from a plate (zero plate) were stained with crystal violet (see below), while the medium in the other plates was replaced by fresh culture medium (200 μl) to which the test substances had been added in various concentrations (0 μM, and in the range 0.3 nM-30 μM; the final concentration of the solvent dimethyl sulphoxide was 0.5%). The cells were incubated in the presence of the test substances for 4 days. The cell proliferation was determined by staining the cells with crystal violet: the cells were fixed by adding 20 μl/measurement point of an 11% glutaraldehyde solution at room temperature for 15 min. After the fixed cells had been washed three times with water, the plates were dried at room temperature. The cells were stained by adding 100 μl/measurement point of a 0.1% crystal violet solution (pH adjusted to pH 3 by adding acetic acid). After the stained cells had been washed three times with water, the plates were dried at room temperature. The dye was dissolved by adding 100 μl/measurement point of a 10% acetic acid solution, and the extinction was determined by photometry at a wavelength of 595 nm. The percentage change in cell growth was calculated by normalizing the measurements to the extinctions of the zero point plate (=0%) and the extinction of the untreated (0 μM) cells (=100%). The IC50 values were determined by means of a 4-parameter fit using the company's own software.

Where [1] appears, read: currently preferred example compounds.

By IC50 is commonly meant the concentration that gives 50% inhibition.

T1 sequence (Q02750 whole entry): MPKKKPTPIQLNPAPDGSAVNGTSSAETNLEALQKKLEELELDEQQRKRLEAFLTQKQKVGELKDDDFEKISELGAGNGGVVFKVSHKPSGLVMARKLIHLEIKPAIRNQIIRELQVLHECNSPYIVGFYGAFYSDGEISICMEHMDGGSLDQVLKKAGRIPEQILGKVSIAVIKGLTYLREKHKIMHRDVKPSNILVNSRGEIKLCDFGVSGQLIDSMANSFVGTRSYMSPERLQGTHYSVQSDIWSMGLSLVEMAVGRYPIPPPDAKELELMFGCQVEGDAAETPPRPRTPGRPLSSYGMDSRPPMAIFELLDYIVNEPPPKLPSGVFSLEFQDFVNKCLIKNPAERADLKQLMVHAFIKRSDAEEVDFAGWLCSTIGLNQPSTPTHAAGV

Consider `O=C(NOCC1CC1)c1ccc(F)c(F)c1Nc1ccc(I)cc1Cl` [CI-1040], for which the “colon cancer growth in vivo” value with colon cancer was “inhibit colon cancer growth in vivo”. Moreover, in the experiment with MEK1/2, the IC50 entry is reported as “low nanomolar range”.

As for `CC(C)(O)C(=O)Nc1cccc(Oc2cc(F)cc(Nc3ccc(I)cc3F)c2C(N)=O)c1` [Example 1.1, 4-Fluoro-2-(2-fluoro-4-iodo-phenylamino)-6-[3-(2-hydroxy-2-methylpropionylamino)-phenoxy]-benzamide], the results for the IC50 against MEK1, with A375 cells and in the experiment with A375 cells (setting [1]) were less than 0.1 µM, less than 1 µM and less than 0.1 µM, respectively. Turning to `NC(=O)c1c(Nc2ccc(I)cc2F)cc(F)cc1Oc1cccc(NC(=O)CO)c1` [Example 3.1, 4-Fluoro-2-(2-fluoro-4-iodo-phenylamino)-6-[3-(2-hydroxy-acetylamino)-phenoxy]-benzamide], in the experiment with A375 cells (setting [1]), the IC50 is less than 0.1 µM.

The compound `COCC(=O)Nc1cccc(Oc2cc(F)cc(Nc3ccc(I)cc3F)c2C(N)=O)c1` [Example 3.2, 4-Fluoro-2-(2-fluoro-4-iodo-phenylamino)-6-[3-(2-methoxy-acetylamino)-phenoxy]-benzamide] registered a 50% inhibitory concentration (IC50) in the experiment with A375 cells (setting [1]) of less than 0.1 µM. In the experiment with A375 cells (setting [1]), `CSCC(=O)Nc1cccc(Oc2cc(F)cc(Nc3ccc(I)cc3F)c2C(N)=O)c1` [Example 3.3, 4-Fluoro-2-(2-fluoro-4-iodo-phenylamino)-6-[3-(2-methylsulfanyl-acetylamino)-phenoxy]-benzamide] returned an IC50 of less than 0.1 µM. The same measure, in the same setting: as for `NC(=O)c1c(Nc2ccc(I)cc2F)cc(F)cc1Oc1cccc(NC(=O)C2CCOCC2)c1` [Example 3.5, Tetrahydro-pyran-4-carboxylic acid {3-[2-carbamoyl-5-fluoro-3-(2-fluoro-4-iodo-phenylamino)-phenoxy]-phenyl}-amide], the figure is less than 0.1 µM. On the same count and under the same terms, next, `CC(O)C(=O)Nc1cccc(Oc2cc(F)cc(Nc3ccc(I)cc3F)c2C(N)=O)c1` (stereo not drawn) [Example 3.6, 4-Fluoro-2-(2-fluoro-4-iodo-phenylamino)-6-[3-(2-hydroxy-propionylamino)-phenoxy]-benzamide]: less than 0.1 µM; `NC(=O)c1c(Nc2ccc(I)cc2F)cc(F)cc1Oc1cccc(NC(=O)CN2CCOCC2)c1` [Example 3.7, 4-Fluoro-2-(2-fluoro-4-iodo-phenylamino)-6-[3-(2-morpholin-4-yl-acetylamino)-phenoxy]-benzamide]: less than 0.1 µM. In turn, `CN1CCC(C(=O)Nc2cccc(Oc3cc(F)cc(Nc4ccc(I)cc4F)c3C(N)=O)c2)CC1` [Example 3.17, 1-Methyl-piperidine-4-carboxylic acid {3-[2-carbamoyl-5-fluoro-3-(2-fluoro-4-iodo-phenylamino)-phenoxy]-phenyl}-amide] registered an IC50 against MEK1 of less than 0.1 µM. `NC(=O)c1c(Nc2ccc(I)cc2F)cc(F)cc1Oc1ccc2oc(=O)[nH]c2c1` [Example 4.1, 4-Fluoro-2-(2-fluoro-4-iodo-phenylamino)-6-(2-oxo-2,3-dihydro-benzooxazol-5-yloxy)-benzamide]: the IC50 against MEK1 and with A375 cells (setting [1]) was less than 0.1 µM throughout. With `NC(=O)c1c(Nc2ccc(I)cc2F)cc(F)cc1Oc1cccc(NC(=O)C(F)(F)F)c1` [Example 5.1, 4-Fluoro-2-(2-fluoro-4-iodo-phenylamino)-6-[3-(2,2,2-trifluoro-acetylamino)-phenoxy]-benzamide], the IC50 in the experiment with A375 cells is less than 1 µM.
